# Measurements: patent publication US12419962B2, “Quinazolines, pharmaceutical compositions, and therapeutic applications” (BioTheryX, Inc., priority 2022, dated 2025)
# Target: T1, HiBiT-tagged endogenous SOS1 protein (Homo sapiens, UniProt Q07889)
# T1 construct: HEK293 cells were engineered to express a HiBiT-tagged endogenous SOS1 protein; endogenous in cells; host or cells: HEK293 cells, engineered so that endogenous SOS1 carries a HiBiT tag
# T1 sequence (Q07889 1-1333): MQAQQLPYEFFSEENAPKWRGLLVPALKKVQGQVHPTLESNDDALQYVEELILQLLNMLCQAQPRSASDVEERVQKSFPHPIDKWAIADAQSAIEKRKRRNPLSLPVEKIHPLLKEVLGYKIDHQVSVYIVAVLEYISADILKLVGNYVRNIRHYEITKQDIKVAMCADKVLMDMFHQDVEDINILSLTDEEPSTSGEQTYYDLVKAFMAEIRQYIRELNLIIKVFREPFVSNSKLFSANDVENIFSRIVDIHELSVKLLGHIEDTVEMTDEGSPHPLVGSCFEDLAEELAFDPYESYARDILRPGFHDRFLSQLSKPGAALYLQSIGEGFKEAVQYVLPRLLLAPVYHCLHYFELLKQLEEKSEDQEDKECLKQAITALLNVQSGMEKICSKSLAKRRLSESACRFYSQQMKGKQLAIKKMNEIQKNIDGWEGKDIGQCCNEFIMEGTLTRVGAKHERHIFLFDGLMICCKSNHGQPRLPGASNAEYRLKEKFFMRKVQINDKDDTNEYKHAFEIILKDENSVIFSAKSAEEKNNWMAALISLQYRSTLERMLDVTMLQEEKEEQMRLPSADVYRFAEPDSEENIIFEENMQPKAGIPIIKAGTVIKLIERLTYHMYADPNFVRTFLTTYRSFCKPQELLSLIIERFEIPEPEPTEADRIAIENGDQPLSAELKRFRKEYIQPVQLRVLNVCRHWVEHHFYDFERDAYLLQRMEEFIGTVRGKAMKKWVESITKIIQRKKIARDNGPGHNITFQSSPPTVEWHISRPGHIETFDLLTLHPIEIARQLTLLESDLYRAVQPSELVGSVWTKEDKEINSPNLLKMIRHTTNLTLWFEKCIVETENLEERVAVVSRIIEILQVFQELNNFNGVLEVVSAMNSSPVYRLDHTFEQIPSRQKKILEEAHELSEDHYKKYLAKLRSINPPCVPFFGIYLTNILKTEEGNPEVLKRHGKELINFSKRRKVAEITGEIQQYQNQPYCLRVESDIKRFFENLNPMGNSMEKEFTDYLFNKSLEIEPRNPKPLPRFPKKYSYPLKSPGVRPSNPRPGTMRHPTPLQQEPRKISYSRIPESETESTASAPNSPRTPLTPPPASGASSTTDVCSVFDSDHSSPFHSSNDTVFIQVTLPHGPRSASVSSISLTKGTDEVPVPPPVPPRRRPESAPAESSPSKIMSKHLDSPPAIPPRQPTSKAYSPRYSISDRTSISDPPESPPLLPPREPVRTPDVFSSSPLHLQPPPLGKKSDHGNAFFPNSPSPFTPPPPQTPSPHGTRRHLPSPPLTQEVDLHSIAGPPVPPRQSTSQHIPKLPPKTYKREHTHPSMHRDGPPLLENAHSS
# Experiment: SOS1-HiBiT Degradation Assay
# Assay type: cell-based
# Conditions: HEK293 cells expressing HiBiT-tagged endogenous SOS1, 6 h treatment
# Procedure: HEK293 cells were engineered to express a HiBiT-tagged endogenous SOS1 protein. The cells were cultured in DMEM media supplemented with 10% fetal bovine serum, streptomycin, and penicillin. The cells were seeded in a white walled 384-well plate at 12,500 cells/well in 50 μL culture media. The cells were incubated at 37° C. under 5% CO2 overnight. The cells were then treated with DMSO (control) or a compound for 6 h at 37° C. under 5% CO2. After incubation, 25 μL media was removed from each cell and 25 μL NANO-GLO® lytic detection reagent was added to each well. After a 10 min incubation with shaking, luminescence was measured using a PERKINELMER ENVISION® multimode plate reader.
# The results are summarized in Table 1, where “A” represents a DC50 of no greater than 100 nM, “B” represents a DC50 of greater than 100 nM and no greater than 500 nM; “C” represents a DC50 of greater than 500 nM and no greater than 2 μM; and “D” represents a DC50 of greater than 2 μM; and where “A′” represents a Dmax of no less than 70%, “B′” represents a Dmax of less than 70% and no less than 50%; “C′” represents a Dmax of less than 50% and no less than 30%; and “D′” represents a Dmax of less than 30%. Compounds C1 and C2 are (R)-2-(3-(1-((6,7-dimethoxy-2-methylquinazolin-4-yl)amino)ethyl)phenyl)-2,2-difluoroethan-1-ol and (R)—N-(1-(3-amino-5-(trifluoromethyl)phenyl)ethyl)-6,7-dimethoxy-2-methylquinazolin-4-amine, respectively.
DC50 [µM],Dmax [%],SMILES
> 10,0,"COc1cc2nc(C)nc(N[C@H](C)c3cccc(C(F)(F)CO)c3)c2cc1OC [Compound C1, (R)-2-(3-(1-((6,7-dimethoxy-2-methylquinazolin-4-yl)amino)ethyl)phenyl)-2,2-difluoroethan-1-ol]"
> 10,0,"COc1cc2nc(C)nc(N[C@H](C)c3cc(N)cc(C(F)(F)F)c3)c2cc1OC [Compound C2, (R)—N-(1-(3-amino-5-(trifluoromethyl)phenyl)ethyl)-6,7-dimethoxy-2-methylquinazolin-4-amine]"
